Here are results for 16 compounds from PubChem BioAssay (NCI).

Some test systems named below: A549 NSCLC; HCT-116 colon; HOP-92 NSCLC; SR leukemia; SK-MEL-2 melanoma; M14 melanoma; U251 CNS; OVCAR-4 ovarian; OVCAR-8 ovarian; RXF 393 renal.
Holding throughout (test): DTP human tumour cell line panel, 48 h

Each structure is given as a SMILES string. Where “and” joins values, the source holds several entries; their conditions need not be identical. Equal entries are not always repeated.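 Compound exposure: 48 hours, 5 concentrations, 96-well plates. GI50: concentration for 50% inhibition of growth. TGI: total growth inhibition.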

As usually defined, the TGI is the concentration at which net growth stops. Low values mean more potent growth arrest, high ones less potent growth arrest. As for `CCc1cccc(C(C)C)c1NC(=O)CCl`, the TGI in the assay on A549 NSCLC, in the assay with HCT-116 colon, with HOP-92 NSCLC, with SR leukemia, in the assay with SK-MEL-2 melanoma and in the assay on M14 melanoma was > 100 µM each time. The TGI with U251 CNS was > 100 µM.

The GI50 is the concentration at which growth is held to half of that of the control. For the compound `CCN(CC)c1c(-c2ccccc2)n[nH]c1C(=O)OC`, the GI50 in the assay on A549 NSCLC was 31.6 µM; with OVCAR-4 ovarian it was 54.1 µM; with HOP-92 NSCLC, 17.8 µM; in the assay with OVCAR-8 ovarian, 15.5 µM; in the assay on SR leukemia it was 17.2 µM; in the assay with SK-MEL-2 melanoma it was 42.5 µM. Moreover, the GI50 in the assay on M14 melanoma is 30.1 µM; with U251 CNS, 25.2 µM; in the assay with RXF 393 renal it was 21.9 µM. Moreover, the TGI was > 100 µM in the assay on A549 NSCLC; > 100 µM in the assay on OVCAR-4 ovarian; 51.1 µM in the assay on HOP-92 NSCLC; 44.9 µM with OVCAR-8 ovarian; 80.1 µM in the assay with SR leukemia; > 100 µM in the assay on SK-MEL-2 melanoma. Moreover, the TGI in the assay on M14 melanoma was 86.9 µM; in the assay with U251 CNS it was 66.4 µM; in the assay with RXF 393 renal, 56.9 µM.

Consider `CC1=CC(C)(c2c[nH]c3ccccc23)CC(C)(C)c2c1[nH]c1ccccc21` (configuration not stated), for which the TGI amounted to 28.3 µM with A549 NSCLC; 27.7 µM in the assay on OVCAR-4 ovarian; 26.7 µM with HCT-116 colon; 29.8 µM in the assay on OVCAR-8 ovarian; 32 µM in the assay on SR leukemia; 46.9 µM in the assay with M14 melanoma. The total growth inhibition concentration (TGI) in the assay with U251 CNS worked out at 32 µM; in the assay on RXF 393 renal it was 26.6 µM.

Consider `Cc1cc(-c2nnc(/C=C/c3ccc4c(c3)OCO4)o2)n[nH]1`, for which the GI50 in the assay with A549 NSCLC was 21.4 µM; in the assay on OVCAR-4 ovarian, 23.7 µM; with HCT-116 colon it was 11.9 µM; with OVCAR-8 ovarian, 22.8 µM; in the assay on SR leukemia, 2.39 µM; in the assay on SK-MEL-2 melanoma, 12.1 µM. Further, the GI50 in the assay on M14 melanoma was 6.32 µM; with U251 CNS it was 13.6 µM; with RXF 393 renal, 20.9 µM. The TGI in the assay with A549 NSCLC is > 50 µM; in the assay on OVCAR-4 ovarian it was > 50 µM; in the assay with HCT-116 colon it was > 50 µM; with OVCAR-8 ovarian, > 50 µM; in the assay with SR leukemia, 48.3 µM; with SK-MEL-2 melanoma, > 50 µM. Also, the values for the TGI with M14 melanoma, in the assay with U251 CNS and in the assay with RXF 393 renal were 21.1 µM, > 50 µM and > 50 µM, respectively.

As for `CCCCC(C)/C=C/C(=O)C1=C(O)/C(=C/C(=O)O)OC1=O` (configuration not stated), the TGI in the assay on A549 NSCLC, in the assay on OVCAR-4 ovarian, in the assay on HCT-116 colon, with OVCAR-8 ovarian, in the assay with SR leukemia and in the assay on SK-MEL-2 melanoma was > 100 µM throughout. In addition, the TGI in the assay on M14 melanoma and in the assay on U251 CNS was > 100 µM each time.

With `CC(=O)Oc1ccc2c(c1)[C@@]1(C)CCCC(C)(C)[C@@H]1CC2`, the GI50 in the assay on A549 NSCLC was 24.7 µM; in the assay with HCT-116 colon, 18.4 µM; in the assay with HOP-92 NSCLC it was 21.7 µM; in the assay on OVCAR-8 ovarian, 18.8 µM; in the assay on SR leukemia, > 100 µM; in the assay with SK-MEL-2 melanoma it was 29.8 µM. Moreover, the results for the GI50 in the assay with M14 melanoma, with U251 CNS and in the assay with RXF 393 renal were 18.2 µM, 19.9 µM and 41.2 µM, respectively. In addition, the TGI is 64.8 µM in the assay with A549 NSCLC; 32.8 µM in the assay on HCT-116 colon; 41.9 µM with HOP-92 NSCLC; 41.6 µM in the assay with OVCAR-8 ovarian; > 100 µM in the assay on SR leukemia; > 100 µM in the assay on SK-MEL-2 melanoma. In addition, the figures for the TGI with M14 melanoma, in the assay with U251 CNS and in the assay with RXF 393 renal were 33.7 µM, 35 µM and 86.3 µM, respectively.

With `Nc1c(C(=O)Nc2ccccn2)sc2nc3c(cc12)C(O)CCC3` (configuration not stated), the GI50 with A549 NSCLC was 2.6 µM; with OVCAR-4 ovarian it was > 50 µM; in the assay on HCT-116 colon, 1.72 µM; in the assay with OVCAR-8 ovarian, 2.19 µM; with SR leukemia it was 0.179 µM; in the assay on SK-MEL-2 melanoma, 1.34 µM. In addition, the GI50 with M14 melanoma is 0.949 µM; in the assay on U251 CNS, 1.87 µM; in the assay with RXF 393 renal it was 1.69 µM. Also, the TGI in the assay with A549 NSCLC, in the assay on OVCAR-4 ovarian, in the assay on HCT-116 colon, in the assay with OVCAR-8 ovarian, with SR leukemia and in the assay on SK-MEL-2 melanoma was > 50 µM in each case. Also, the total growth inhibition concentration (TGI) with M14 melanoma, in the assay with U251 CNS and with RXF 393 renal was > 50 µM each time.

Turning to `COc1cc(Cl)cc(-c2nn(-c3cccc(NC(=O)Nc4cccc(C(F)(F)F)c4)c3)cc2-c2ccncc2)c1`, the GI50 is 0.726 µM in the assay with A549 NSCLC; 2.54 µM in the assay on OVCAR-4 ovarian; 0.754 µM with HCT-116 colon; 1.12 µM with OVCAR-8 ovarian; 1.14 µM in the assay on SR leukemia; 1.29 µM in the assay with SK-MEL-2 melanoma. In addition, the figures for the GI50 in the assay on M14 melanoma, in the assay on U251 CNS and with RXF 393 renal were 1.34 µM, 0.879 µM and 1.4 µM, respectively. The TGI in the assay on A549 NSCLC was 7.42 µM; in the assay on OVCAR-4 ovarian it was 38.8 µM; in the assay on HCT-116 colon, 7.61 µM; in the assay with OVCAR-8 ovarian, 4.88 µM; with SR leukemia, 4.39 µM; with SK-MEL-2 melanoma, 3.08 µM. The TGI in the assay on M14 melanoma came to 3.98 µM; with U251 CNS it was 2.91 µM; in the assay with RXF 393 renal, 4.35 µM.

In the case of `OB(O)c1ccccc1C#Cc1ccccc1B(O)O`, the TGI was 96.1 µM with A549 NSCLC; 58.4 µM in the assay on HCT-116 colon; > 100 µM with HOP-92 NSCLC; > 100 µM in the assay on OVCAR-8 ovarian; > 100 µM in the assay with SR leukemia; 34.7 µM in the assay on SK-MEL-2 melanoma. Further, the TGI turned out to be 57.6 µM in the assay with M14 melanoma, 78.3 µM in the assay with U251 CNS and 36.9 µM with RXF 393 renal.

For `O=C(NCCc1ccccc1)Nc1ccc2cc3ccc(NC(=O)NCCc4ccccc4)cc3nc2c1`, the GI50 was 3.16 µM in the assay on A549 NSCLC; 1.48 µM with OVCAR-4 ovarian; 0.349 µM in the assay on HCT-116 colon; 1.47 µM in the assay on HOP-92 NSCLC; 0.807 µM with OVCAR-8 ovarian; 0.392 µM in the assay on SR leukemia. The GI50 is 1.39 µM with SK-MEL-2 melanoma, 0.746 µM in the assay on U251 CNS and 1.32 µM with RXF 393 renal. In addition, the TGI came out at 14.7 µM in the assay with A549 NSCLC; 3.48 µM in the assay on OVCAR-4 ovarian; 1.29 µM in the assay with HCT-116 colon; 3 µM in the assay on HOP-92 NSCLC; 2.7 µM in the assay on OVCAR-8 ovarian; 16 µM in the assay on SR leukemia. Moreover, the TGI in the assay with SK-MEL-2 melanoma is 3 µM; with U251 CNS it was 2.16 µM; with RXF 393 renal, 6.49 µM.

As to `O=c1c2cc(Br)cc(Br)c2nc(CCCl)n1-c1ccc(O)c([N+](=O)[O-])c1`, the TGI in the assay with A549 NSCLC was 31.7 µM; in the assay with OVCAR-4 ovarian, 29 µM; with HCT-116 colon, 28.1 µM; in the assay with HOP-92 NSCLC, 52.2 µM; with OVCAR-8 ovarian it was 41.6 µM; in the assay with SR leukemia, 65.4 µM. The figures for the total growth inhibition concentration (TGI) with SK-MEL-2 melanoma, with M14 melanoma and in the assay with U251 CNS were 34.6 µM, 31.9 µM and 32.9 µM, respectively.

`N#Cc1c(-c2ccccc2)cc(-c2ccc(N)cc2)[nH]c1=O`: the concentration for total growth inhibition (TGI) in the assay with A549 NSCLC, in the assay with OVCAR-4 ovarian, in the assay on HCT-116 colon, in the assay on HOP-92 NSCLC, in the assay with OVCAR-8 ovarian and with SR leukemia was > 100 µM each time. For the same compound, the TGI in the assay on M14 melanoma, in the assay on U251 CNS and in the assay with RXF 393 renal was > 100 µM throughout.

Consider `COC(=O)c1cccc2c3ccccc3c3ccccc3c12`, for which the concentration for total growth inhibition (TGI) was > 100 µM with A549 NSCLC; > 100 µM in the assay on OVCAR-4 ovarian; > 100 µM in the assay on HCT-116 colon; 58.2 µM with OVCAR-8 ovarian; 87.7 µM in the assay with SR leukemia; 58.7 µM in the assay on SK-MEL-2 melanoma. The TGI was > 100 µM with M14 melanoma, 73.6 µM in the assay on U251 CNS and 71.3 µM in the assay with RXF 393 renal.

Turning to `O=C1/C(=C/c2ccc3c(c2)OCCO3)CCC/C1=C\c1ccc2c(c1)OCCO2`, the concentration for total growth inhibition (TGI) in the assay with A549 NSCLC is > 100 µM; in the assay with OVCAR-4 ovarian it was 61 µM; with HCT-116 colon, 7.85 µM; with HOP-92 NSCLC, > 100 µM; in the assay with OVCAR-8 ovarian it was 30.6 µM; in the assay with SR leukemia it was 85.8 µM. For the same compound, the values for the TGI in the assay with M14 melanoma, in the assay on U251 CNS and in the assay with RXF 393 renal were 41.3 µM, 36.7 µM and 53.5 µM, respectively.

For `COC(=O)CCC(=O)N1C/C(=C\c2ccccc2)C(=O)/C(=C/c2ccccc2)C1`, the TGI amounted to 12.3 µM in the assay on A549 NSCLC; 4.92 µM in the assay with OVCAR-4 ovarian; 1.42 µM in the assay with HCT-116 colon; 18.7 µM in the assay with HOP-92 NSCLC; 14.6 µM in the assay on OVCAR-8 ovarian; 12.2 µM in the assay with SR leukemia. The total growth inhibition concentration (TGI) turned out to be 3.93 µM with M14 melanoma, 2.6 µM in the assay on U251 CNS and 3.74 µM in the assay on RXF 393 renal.

`CCOC(=O)C(Cc1c[nH]c2cc(N(CCO)CCO)ccc12)(NC(C)=O)C(=O)OCC`: the GI50 in the assay with A549 NSCLC was 604 µM; with OVCAR-4 ovarian, > 1000 µM; in the assay on HCT-116 colon, 325 µM; in the assay with HOP-92 NSCLC it was > 1000 µM; with OVCAR-8 ovarian, 697 µM; with SR leukemia, 16.8 µM and 34.6 µM. Also, the figures for the GI50 in the assay on M14 melanoma, in the assay with U251 CNS and with RXF 393 renal were 517 µM, 309 µM and 128 µM, respectively. Further, the TGI with A549 NSCLC, in the assay with OVCAR-4 ovarian, in the assay with HCT-116 colon, with HOP-92 NSCLC, with OVCAR-8 ovarian and with M14 melanoma was > 1000 µM throughout. Further, the TGI in the assay on U251 CNS was > 1000 µM; in the assay with RXF 393 renal, 719 µM.
